Source: patent US20100028485A1, “TALAROMYCES EMERSONII ENZYME SYSTEMS” (priority 2006, published 2010)
Like-named read-outs stand apart in the source and are kept apart here.

Key:
Type in all cases: biochemical, Talaromyces emersonii
[1] = system: EG VII; experiment: Effects of metal ions, chemical modification reagents, detergents and potential inhibitors on EG VII; conditions: for EG VII activity after protection experiment (control = 100.0): 1st incubation (30 min) enzyme + reagent, 2nd incubation (30 min) + NBS; for EG VII activity, Enzyme + reagent (control = 100.0): Preincubation of enzyme with reagent for 30 min (50 C) prior to addition of substrate; for EG VII activity, Substrate + reagent (control = 100.0): Preincubation of substrate with reagent for 30 min (50 C) prior to addition of enzyme
Method: (§1) Substrate specificity on various polysaccharides and synthetic glycosides was evaluated by 15 measuring activity against a wide variety of carbohydrates (BBG, lichenan, CMC, other polysaccharides and synthetic glycosides) using the normal β-glucanase assay procedure. • Effects Of Metal Ions, Chemical Modification Reagents And Potential Inhibitors A range of monovalent, divalent and heavy metal ions, at final assay concentrations of 1.0 mM, were investigated for their potential effects on the activities of EG V, EG VI and EG VII, by incubating the enzymes with the chemicals and then conducting the normal enzyme assay. Finally, the inhibitor effects of glycosides, such as disaccharides, lactones and flavanoid glycosides on the purified enzymes were examined. Specified concentrations of each glycoside were included in normal assay cocktails and residual activity determined by comparison with controls (no glycoside present).
(§2) Activity was expressed as a % relative to a control (no metal ion present in incubation mixture). In general, heavy metal ions are thought to inactivate enzymes by forming covalent salts with cysteine, histidine or carboxyl groups. […] A selection of reagents known to modify amino acid R-groups in proteins were tested for their effects on EG V, EG VI and EG VII, both in the absence and presence of substrate (substrate-protective effects could be observed in this manner) (see Table 6).

[2] = system: EG V; experiment: Effects of metal ions, chemical modification reagents, detergents and potential inhibitors on EG V; parameters: decrease in activity of EG V by detergent / loss of activity of EG V by detergent: concentration or dose not given beside the values; conditions: for EG V activity after protection experiment (control = 100.0): 1st incubation (30 min) enzyme + reagent, 2nd incubation (30 min) + NBS; for EG V activity, Enzyme + reagent (control = 100.0): Preincubation of enzyme with reagent for 30 min (50 C) prior to addition of substrate; for EG V activity, Substrate + reagent (control = 100.0): Preincubation of substrate with reagent for 30 min (50 C) prior to addition of enzyme
Method: as §1, §2

[3] = system: EG VI; experiment: Effects of metal ions, chemical modification reagents, detergents and potential inhibitors on EG VI; conditions: for EGVI activity after protection experiment (control = 100.0): 1st incubation (30 min) enzyme + reagent, 2nd incubation (30 min) + NBS; for EV VI activity, Enzyme + reagent (control = 100.0): Preincubation of enzyme with reagent for 30 min (50 C) prior to addition of substrate; for EGVI activity, Substrate + reagent (control = 100.0): Preincubation of substrate with reagent for 30 min (50 C) prior to addition of enzyme; for increase in activity of EG VI: 1 mM metal ion, relative to control without metal ion
Method: as §1, §2

[4] = system: EG V, EG VI and EG VII; experiment: Effects of metal ions, reagents, phenolics and glycosides stated for all three enzymes; conditions: for effect of phenolic substances on enzyme activity: pre-incubation of enzyme with compound in the absence of substrate; for effect of metal ion on activity of all three enzymes: 1 mM metal ion
Method: as §1, §2

[5] = 1 mM metal ion, relative to control without metal ion
[6] = pre-incubated with enzyme in advance of the addition of substrate

Row | Compound | EG VII activity, Enzyme + reagent (control = 100.0) [1] | EG VII activity, Substrate + reagent (control = 100.0) [1] | EG V activity, Enzyme + reagent (control = 100.0) [2] | EG V activity, Substrate + reagent (control = 100.0) [2] | EV VI activity, Enzyme + reagent (control = 100.0) [3] | EGVI activity, Substrate + reagent (control = 100.0) [3] | further results
1 | OC(CS)C(O)CS (racemic) [DL-DTT] | 575.0 | 348.6 | 218.9 | 264.3 | 514.3 | 915.5 | EG VII activity after protection experiment (control = 100.0) [1]: 94.6; EG V activity after protection experiment (control = 100.0) [2]: 204.3; EGVI activity after protection experiment (control = 100.0) [3]: 140.0
2 | [Cl-].c1ccc(-c2nn(-c3ccccc3)[n+](-c3ccccc3)n2)cc1 [2,3,5-Triphenyltetrazolium Chloride] | 98.5 | 100.0 | 97.5 | 89.1 | 97.6 | 97.4 | –
3 | Oc1cc(O)c2c(c1)O[C@H](c1ccc(O)c(O)c1)[C@@H](O)C2 [(+)catechin] | – | – | – | – | – | – | effect of phenolic substances on enzyme activity [4]: did not have a marked inhibitory effect
4 | Oc1cc(O)c2c(c1)O[C@H](c1ccc(O)c(O)c1)[C@H](O)C2 [(−)epicatechin] | – | – | – | – | – | – | effect of phenolic substances on enzyme activity [4]: did not have a marked inhibitory effect
5 | [Ag+] [Ag^+] | – | – | – | – | – | – | effect of metal ion on activity of all three enzymes [4]: markedly decreased activity
6 | [Ba+2] [Ba^2+] | – | – | – | – | – | – | decrease in activity of EG V [2, 5]: 16.5%; increase in activity of EG VI [3]: 37.6%
7 | [Ca+2] [Ca^2+] | – | – | – | – | – | – | enhancement of EG VII activity by SO4^2− salt relative to corresponding Cl^− salt ([1]; 1 mM): ~2 fold; decrease in activity of EG V [2, 5]: 21.5-24.6%; increase in activity of EG VI [3]: 10%
8 | N[C@@H](CS)C(=O)O [Cysteine] | 196.5 | 367.7 | 163.8 | 237.8 | 170.4 | 370.20 | EG VII activity after protection experiment (control = 100.0) [1]: 167.0; EG V activity after protection experiment (control = 100.0) [2]: 117.0; EGVI activity after protection experiment (control = 100.0) [3]: 217.0
9 | C[S+](C)[O-] [Dimethylsuphoxide] | 194.0 | 100.0 | 125.5 | 93.6 | 124.3 | 141.7 | –
10 | O[C@H](CS)[C@@H](O)CS [Dithioerythritol] | 773.8 | 360.9 | 270.6 | 271.9 | 657.2 | 917.90 | –
11 | [Hg+2] [Hg^2+] | – | – | – | – | – | – | effect of metal ion on activity of all three enzymes [4]: Almost total inhibition
12 | [K+] [K^+] | – | – | – | – | – | – | increase in activity of EG VII [1]: 20%
13 | [Mo] [Mo^6+] | – | – | – | – | – | – | effect of metal ion on activity of all three enzymes [4]: enhanced the activity
14 | O=C1CCC(=O)N1Br [N-Bromosuccinimide (NBS), N-Bromosuccinimide] | 0.0 | 0.0 | 0.0 | 0.0 | 0.0 | 0.0 | EG VII activity after protection experiment (control = 100.0) [1]: 0.0; EG V activity after protection experiment (control = 100.0) [2]: 0.0; EGVI activity after protection experiment (control = 100.0) [3]: 0.0
15 | CCN1C(=O)C=CC1=O [N-ethylmaleimide] | – | – | – | – | – | – | inhibition by sulphydryl reagents ([4]; in the presence or absence of substrate): little or no inhibition
16 | [Na+] [Na^+] | – | – | – | – | – | – | increase in activity of EG V [2, 5]: > 39%

Row | Compound | EG VII activity, Enzyme + reagent (control = 100.0) [1] | EG VII activity, Substrate + reagent (control = 100.0) [1] | EG V activity, Enzyme + reagent (control = 100.0) [2] | EG V activity, Substrate + reagent (control = 100.0) [2] | EV VI activity, Enzyme + reagent (control = 100.0) [3] | EGVI activity, Substrate + reagent (control = 100.0) [3] | further results
17 | [BH4-].[Na+] [Sodium borohydride] | 194.0 | 82.8 | 96.1 | 81.5 | 125.0 | 104.8 | –
18 | [Na+].[O-][I+3]([O-])([O-])[O-] [Sodium periodate] | 300.0 | 469.7 | 181.0 | 283.3 | 357.1 | 1001.2 | –
19 | O=C(O)CS [Thioglycolic acid] | 188.1 | 150.0 | 211.1 | 148.1 | 187.1 | 269.0 | –
20 | CC[n+]1ccc(-c2cccc(S(=O)(=O)[O-])c2)o1 [Woodward's Reagent K] | 305.9 | 143.0 | 162.7 | 121.1 | 280.0 | 266.7 | –
21 | [Zn+2] [Zn^230] | – | – | – | – | – | – | effect of metal ion on activity of all three enzymes [4]: enhanced the activity
22 | OC[C@H]1O[C@@H](Oc2ccc(O)cc2)[C@H](O)[C@@H](O)[C@@H]1O [arbutin] | – | – | – | – | – | – | effect of glycosides/disaccharides on activity of EG V-VII [4]: no apparent effect
23 | O=C(O)/C=C/c1ccc(O)c(O)c1 [caffeic acid] | – | – | – | – | – | – | effect of phenolic substances on enzyme activity [4]: did not have a marked inhibitory effect; effect of phenolic substances on enzyme activity ([4]; listed as cafeic acid): markedly activated
24 | O=C[C@H](O)[C@@H](O)[C@H](O[C@@H]1O[C@H](CO)[C@@H](O)[C@H](O)[C@H]1O)[C@H](O)CO [cellobiose] | – | – | – | – | – | – | concentrations that markedly inhibited all three enzymes [4]: 50 to 75 mM
25 | O=c1ccc2cc(O[C@@H]3O[C@H](CO)[C@@H](O)[C@H](O)[C@H]3O)c(O)cc2o1 [esculin] | – | – | – | – | – | – | effect of glycosides/disaccharides on activity of EG V-VII [4]: no apparent effect
26 | OC[C@H]1O[C@@H](O[C@H]2[C@H](O)[C@@H](O)C(O)O[C@@H]2CO)[C@H](O)[C@@H](O)[C@H]1O (stereo partly shown) [lactose] | – | – | – | – | – | – | concentrations inhibiting EG V [2]: > 75 mM
27 | O=Cc1ccccc1C=O [o-Phthaldialdehyde] | 155.0 | 98.8 | 106.1 | 94.6 | 100.0 | 139.0 | –
28 | O=C(O)c1cc[c]([Hg][Cl])cc1 [p-Chloromercuribenzoate] | 105.4 | 91.6 | 125.4 | 89.7 | 115.4 | 107.1 | –
29 | C[C@H](CCC(=O)NCCS(=O)(=O)O)[C@H]1CC[C@H]2[C@@H]3[C@H](O)C[C@@H]4C[C@H](O)CC[C@]4(C)[C@H]3C[C@H](O)[C@]12C [taurocholic acid] | – | – | – | – | – | – | decrease in activity of EG V by detergent [2]: 47.7%
30 | C[C@H](CCC(=O)NCCS(=O)(=O)O)[C@H]1CC[C@H]2[C@@H]3CC[C@@H]4C[C@H](O)CC[C@]4(C)[C@H]3C[C@H](O)[C@]12C [taurodeoxycholic acid] | – | – | – | – | – | – | decrease in activity of EG V by detergent [2, 6]: 22.7%
31 | Tween 20 | – | – | – | – | – | – | decrease in activity of EG V by detergent [2, 6]: 12.7%
32 | Tween 80 | – | – | – | – | – | – | decrease in activity of EG V by detergent [2, 6]: 30.8%; loss of activity of EG V by detergent ([2]; simultaneous incubation with substrate): 34.2%
